For one compound, Activity results are on record in ChEMBL document CHEMBL2073812, “Functional analysis of candidate ABC transporter proteins for sitosterol transport” (Biochim Biophys Acta, 2002).

One data set deals with T1, Bile salt export pump (Rattus norvegicus, UniProt O70127).
T1 sequence (O70127 whole entry): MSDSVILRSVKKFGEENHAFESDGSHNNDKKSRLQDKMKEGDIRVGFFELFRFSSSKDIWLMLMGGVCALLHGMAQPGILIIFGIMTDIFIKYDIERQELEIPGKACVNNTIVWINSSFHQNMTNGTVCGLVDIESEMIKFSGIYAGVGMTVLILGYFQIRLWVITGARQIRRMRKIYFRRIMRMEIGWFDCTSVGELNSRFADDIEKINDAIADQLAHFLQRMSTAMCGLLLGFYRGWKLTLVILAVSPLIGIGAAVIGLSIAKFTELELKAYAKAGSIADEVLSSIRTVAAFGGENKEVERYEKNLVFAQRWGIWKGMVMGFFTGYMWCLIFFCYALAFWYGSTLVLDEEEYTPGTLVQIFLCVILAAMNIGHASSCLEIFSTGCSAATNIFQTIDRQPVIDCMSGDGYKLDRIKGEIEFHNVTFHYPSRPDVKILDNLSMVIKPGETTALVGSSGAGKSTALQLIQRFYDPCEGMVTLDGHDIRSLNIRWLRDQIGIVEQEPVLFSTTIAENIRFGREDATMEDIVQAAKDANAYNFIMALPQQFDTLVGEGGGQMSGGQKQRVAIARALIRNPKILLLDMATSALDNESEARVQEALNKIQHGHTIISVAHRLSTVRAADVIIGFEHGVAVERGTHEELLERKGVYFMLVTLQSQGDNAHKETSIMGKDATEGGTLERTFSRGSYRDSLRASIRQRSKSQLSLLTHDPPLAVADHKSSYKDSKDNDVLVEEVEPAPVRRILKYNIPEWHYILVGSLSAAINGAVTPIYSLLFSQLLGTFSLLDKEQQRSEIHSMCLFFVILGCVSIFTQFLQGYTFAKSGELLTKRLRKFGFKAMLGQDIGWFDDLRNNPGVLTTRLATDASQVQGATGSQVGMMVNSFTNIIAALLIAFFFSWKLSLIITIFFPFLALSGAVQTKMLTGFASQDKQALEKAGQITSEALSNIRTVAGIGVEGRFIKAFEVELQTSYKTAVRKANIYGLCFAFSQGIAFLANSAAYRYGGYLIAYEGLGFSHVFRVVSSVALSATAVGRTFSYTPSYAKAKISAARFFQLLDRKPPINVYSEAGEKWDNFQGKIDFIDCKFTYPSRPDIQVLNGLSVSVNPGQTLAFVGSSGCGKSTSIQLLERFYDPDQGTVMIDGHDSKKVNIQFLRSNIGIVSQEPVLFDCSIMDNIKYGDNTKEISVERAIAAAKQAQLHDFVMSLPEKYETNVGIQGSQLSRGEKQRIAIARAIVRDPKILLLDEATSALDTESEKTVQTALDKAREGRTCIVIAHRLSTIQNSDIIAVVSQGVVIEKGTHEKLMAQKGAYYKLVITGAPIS
As to the kind of experiment: TP_TRANSPORTER: inhibition of taurocholate uptake (taurocholate: 2 uM, beta-sitosterol: 10 uM) in membrane vesicles of Bsep-expressing […] cells. In kind it is functional, cell membranes, Membrane vesicle. As to conditions: sf9, 10 µM.

The target in data set [1] is ATP-dependent translocase ABCB1 (Homo sapiens, UniProt P08183). The data set can be described thus: TP_TRANSPORTER: Flow cytometry in MDR1-expressing NIH3T3 cells. Format: functional, cell-based. The following applies: mouse. (Flow cytometry measures light scatter and fluorescence of single cells or particles in a stream.)
Data set [2] addresses Multidrug resistance-associated protein 1 (Mus musculus, UniProt O35379). The data set can be described thus: TP_TRANSPORTER: Flow cytometry in lymphocytes from Mdr1a/b(-/)- mice. As to conditions: lymphocyte. Format: functional.
Data set [3] addresses T2, Broad substrate specificity ATP-binding cassette transporter ABCG2 (Mus musculus, UniProt Q7TMS5).
T2 sequence (Q7TMS5 whole entry): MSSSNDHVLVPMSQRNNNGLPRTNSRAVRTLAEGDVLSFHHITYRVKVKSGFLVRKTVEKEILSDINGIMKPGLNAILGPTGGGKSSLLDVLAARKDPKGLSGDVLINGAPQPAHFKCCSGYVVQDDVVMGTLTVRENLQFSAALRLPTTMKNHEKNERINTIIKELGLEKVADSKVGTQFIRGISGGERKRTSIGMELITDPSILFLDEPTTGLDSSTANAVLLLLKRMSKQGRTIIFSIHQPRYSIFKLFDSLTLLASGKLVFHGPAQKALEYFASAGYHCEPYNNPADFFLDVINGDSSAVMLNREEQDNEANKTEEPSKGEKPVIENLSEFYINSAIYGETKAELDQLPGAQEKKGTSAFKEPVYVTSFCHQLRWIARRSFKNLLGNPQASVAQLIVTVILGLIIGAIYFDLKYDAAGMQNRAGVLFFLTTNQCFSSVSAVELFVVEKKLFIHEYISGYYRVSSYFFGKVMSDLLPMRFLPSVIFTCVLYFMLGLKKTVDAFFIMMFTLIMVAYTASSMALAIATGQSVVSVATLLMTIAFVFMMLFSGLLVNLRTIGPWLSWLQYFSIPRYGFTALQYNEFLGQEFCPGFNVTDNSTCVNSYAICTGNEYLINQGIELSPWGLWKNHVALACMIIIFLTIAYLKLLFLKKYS
The data set can be described thus: TP_TRANSPORTER: Flow cytometry in lymphocytes from Mdr1a/b-/- mice. Format: functional, cell-based. As to conditions: lymphocyte.

Sequence of Multidrug resistance-associated protein 1 (O35379 whole entry): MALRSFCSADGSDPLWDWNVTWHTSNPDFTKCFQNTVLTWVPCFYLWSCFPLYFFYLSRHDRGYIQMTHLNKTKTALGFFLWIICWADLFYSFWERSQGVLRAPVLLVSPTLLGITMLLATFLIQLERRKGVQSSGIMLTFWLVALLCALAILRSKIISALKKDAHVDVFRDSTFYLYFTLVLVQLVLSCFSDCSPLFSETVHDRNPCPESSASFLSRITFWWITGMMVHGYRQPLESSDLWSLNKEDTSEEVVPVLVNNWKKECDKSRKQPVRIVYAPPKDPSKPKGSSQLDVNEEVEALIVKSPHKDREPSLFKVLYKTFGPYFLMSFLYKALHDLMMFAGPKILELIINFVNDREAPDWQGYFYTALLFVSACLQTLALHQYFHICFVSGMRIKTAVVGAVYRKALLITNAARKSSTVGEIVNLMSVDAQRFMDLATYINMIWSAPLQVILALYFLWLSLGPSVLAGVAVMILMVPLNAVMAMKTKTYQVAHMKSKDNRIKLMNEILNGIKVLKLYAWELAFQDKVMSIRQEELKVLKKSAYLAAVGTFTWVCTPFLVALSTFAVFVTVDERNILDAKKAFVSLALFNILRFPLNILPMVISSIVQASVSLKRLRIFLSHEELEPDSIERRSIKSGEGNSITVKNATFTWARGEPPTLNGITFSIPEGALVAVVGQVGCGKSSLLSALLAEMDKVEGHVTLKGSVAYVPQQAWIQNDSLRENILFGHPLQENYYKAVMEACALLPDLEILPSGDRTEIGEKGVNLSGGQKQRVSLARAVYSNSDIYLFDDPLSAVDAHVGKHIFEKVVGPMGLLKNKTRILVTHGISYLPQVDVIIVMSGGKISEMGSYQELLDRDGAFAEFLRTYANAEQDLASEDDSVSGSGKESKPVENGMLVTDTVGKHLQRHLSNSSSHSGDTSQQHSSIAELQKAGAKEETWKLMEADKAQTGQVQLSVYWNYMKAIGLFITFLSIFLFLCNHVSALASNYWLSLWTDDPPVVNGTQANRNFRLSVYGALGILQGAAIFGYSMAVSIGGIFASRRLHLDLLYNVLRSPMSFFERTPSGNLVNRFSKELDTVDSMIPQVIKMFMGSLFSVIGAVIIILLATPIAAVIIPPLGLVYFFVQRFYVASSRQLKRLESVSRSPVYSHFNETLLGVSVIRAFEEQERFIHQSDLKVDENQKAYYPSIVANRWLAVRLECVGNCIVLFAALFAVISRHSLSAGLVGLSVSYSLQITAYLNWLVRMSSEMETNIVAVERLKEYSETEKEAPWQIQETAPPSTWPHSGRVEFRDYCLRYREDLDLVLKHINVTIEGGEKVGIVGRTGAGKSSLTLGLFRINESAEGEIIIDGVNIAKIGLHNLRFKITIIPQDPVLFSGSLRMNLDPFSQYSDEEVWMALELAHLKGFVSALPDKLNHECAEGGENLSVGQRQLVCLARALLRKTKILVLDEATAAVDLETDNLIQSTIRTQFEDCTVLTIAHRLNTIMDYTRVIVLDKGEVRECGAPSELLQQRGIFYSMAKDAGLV
Sequence of ATP-dependent translocase ABCB1 (P08183 whole entry): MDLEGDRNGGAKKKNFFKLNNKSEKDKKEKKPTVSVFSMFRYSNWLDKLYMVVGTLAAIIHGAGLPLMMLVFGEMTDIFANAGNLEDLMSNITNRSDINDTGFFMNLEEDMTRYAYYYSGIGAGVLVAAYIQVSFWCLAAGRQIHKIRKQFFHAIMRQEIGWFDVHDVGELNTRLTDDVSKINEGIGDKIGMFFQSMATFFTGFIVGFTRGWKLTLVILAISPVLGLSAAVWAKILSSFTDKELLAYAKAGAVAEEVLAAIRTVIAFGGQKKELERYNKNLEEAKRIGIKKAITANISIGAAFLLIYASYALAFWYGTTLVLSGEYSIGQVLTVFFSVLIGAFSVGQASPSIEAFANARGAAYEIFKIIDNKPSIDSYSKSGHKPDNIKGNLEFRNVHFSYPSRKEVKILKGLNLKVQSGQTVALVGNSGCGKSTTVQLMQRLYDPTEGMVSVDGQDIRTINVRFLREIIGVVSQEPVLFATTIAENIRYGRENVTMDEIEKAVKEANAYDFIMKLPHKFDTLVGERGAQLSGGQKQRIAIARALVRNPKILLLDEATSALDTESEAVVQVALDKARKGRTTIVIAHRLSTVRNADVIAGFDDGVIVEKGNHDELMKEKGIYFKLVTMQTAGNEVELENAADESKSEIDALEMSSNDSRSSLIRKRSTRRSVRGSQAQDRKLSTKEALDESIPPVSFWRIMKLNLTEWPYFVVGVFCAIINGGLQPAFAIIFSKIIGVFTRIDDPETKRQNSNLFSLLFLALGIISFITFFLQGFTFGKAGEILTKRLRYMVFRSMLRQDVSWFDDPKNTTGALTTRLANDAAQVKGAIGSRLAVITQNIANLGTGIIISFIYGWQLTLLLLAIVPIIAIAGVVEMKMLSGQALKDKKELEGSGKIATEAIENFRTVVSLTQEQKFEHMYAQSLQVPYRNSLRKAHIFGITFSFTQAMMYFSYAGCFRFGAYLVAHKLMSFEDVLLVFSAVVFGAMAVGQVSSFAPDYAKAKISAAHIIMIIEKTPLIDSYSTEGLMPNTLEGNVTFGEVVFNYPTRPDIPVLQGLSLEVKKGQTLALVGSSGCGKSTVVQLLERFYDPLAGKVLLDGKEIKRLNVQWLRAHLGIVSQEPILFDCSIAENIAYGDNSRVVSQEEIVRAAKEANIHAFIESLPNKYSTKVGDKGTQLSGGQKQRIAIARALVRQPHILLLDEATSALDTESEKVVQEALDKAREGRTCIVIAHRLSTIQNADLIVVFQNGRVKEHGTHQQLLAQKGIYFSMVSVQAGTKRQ

In the case of `CC[C@H](CC[C@@H](C)[C@H]1CC[C@H]2[C@@H]3CC=C4C[C@@H](O)CC[C@]4(C)[C@H]3CC[C@]12C)C(C)C` [BETA-SITOSTEROL], the Activity entry on Bile salt export pump is “is not an inhibitor [-]”; in data set [1], “is not a substrate [-]”; in data set [2] it was “is not a substrate [-]”; in data set [3] it was “is not a substrate [-]”.
